From patent US20020188202A1, “Method of diagnosis and treatment and related compositions and apparatus” (priority 1996, published 2002)
Entries after “also recorded” stand apart in the source; their conditions may differ. Counter-ions that a name gives are not always drawn. Like-named read-outs stand apart in the source and are kept apart here.

Legend:
[1] = system: patients with cerebral vasospasm; experiment: Vasoactive medications tried on Applicant's patients with vasospasm, monitored by Transcranial Doppler (TCD), exam and symptoms; details: for effectiveness in treating the vasospasm: qualitative rating in Applicant's patient population (tend to be the most severe cases); for effect on vessels seen on TCD / ultrasound (vasoconstriction or dilatation) / headache / neurological exam and other neurological abnormalities: human, in vivo; for EEG abnormalities and neurocognitive or neurological complaints / change of the vasospasm: anti-epileptic drugs in therapeutic doses
[2] = system: patients with cerebral vasospasm; details: human, in vivo
[3] = system: patient with migraine, schizophrenic reaction and vasospasm; experiment: Case study: psychosis caused by cerebral ischemia, EEG and TCD; type: in vivo, human patient; details: single patient; for response of psychosis (hallucinations and delusions): in hospital
[4] = IM, lower doses than 90 to 120 mg

CCOC(=O)[C@H](CCc1ccccc1)N[C@@H](C)C(=O)N1Cc2ccccc2C[C@H]1C(=O)O [Accupril, Quinapril]
effectiveness in treating the vasospasm [1]: consistently been the most effective
weaning from oral medications ([1]; with concomitant low dose Nitroglycerin, 1/10th inch once to several times a day): most patients may be eventually weaned from the use of oral medications

C[C@H](CS)C(=O)N1CCC[C@H]1C(=O)O [Capoten, Captopril]
effectiveness in treating the vasospasm [1]: close second tier medications

COc1cc2nc(N3CCN(C(=O)C4COc5ccccc5O4)CC3)nc(N)c2cc1OC (centres unmarked) [Cardura, Doxazosin]
effectiveness in treating the vasospasm [1]: relatively mild medication

Clc1cccc(Cl)c1N=C1NCCN1 [Clonidine]
transient supersensitivity (transient worsening of the vasospasm) on early administration [2]: did not occur
effect on vessels seen on TCD / ultrasound (vasoconstriction or dilatation) [1]: resulted in vascular dilatation
headache [1]: alleviated or treated the headache
neurological exam and other neurological abnormalities [1]: clinical and neurological exam improvement
treating migraine induced depression due to chronic vasospasm ([1]; patients who could not tolerate or respond to other vasodilators): useful in these depressed patients
effectiveness in treating the vasospasm [1]: extremely effective

CN1C[C@H](C(=O)N[C@]2(C)O[C@@]3(O)[C@@H]4CCCN4C(=O)[C@H](Cc4ccccc4)N3C2=O)C[C@@H]2c3cccc4[nH]cc(c34)C[C@H]21 [DHE]
effect on vessels seen on TCD / ultrasound (vasoconstriction or dilatation) [1]: caused vasoconstriction
headache [1]: improved their headache
neurological exam and other neurological abnormalities [1]: worsened the patient's neurological exam and mentation

CCCC(CCC)C(=O)[O-].[Na+] [Depakote, Sodium Valproate]
EEG and flow abnormalities on Transcranial Doppler [3]: without change in their EEG and continued flow abnormalities
EEG abnormalities and neurocognitive or neurological complaints [1]: improved in some patients
change of the vasospasm [1]: none of the medications in therapeutic doses have changed the vasospasm

CC(COc1ccccc1)N(CCCl)Cc1ccccc1 (centres unmarked) [Dibenzyline, Phenoxybenzamine]
effectiveness in treating the vasospasm [1]: relatively mild

COc1ccc([C@@H]2Sc3ccccc3N(CCN(C)C)C(=O)[C@@H]2OC(C)=O)cc1 [Dilacor, Diltiazem]
effectiveness in treating the vasospasm [1]: less effective

O=C1NC(=O)C(c2ccccc2)(c2ccccc2)N1 [Dilantin, Phenytoin]
EEG abnormalities and neurocognitive or neurological complaints [1]: improved in some patients
change of the vasospasm [1]: none of the medications in therapeutic doses have changed the vasospasm

COC(=O)C1=C(C)NC(C)=C(C(=O)OC(C)C)C1c1cccc2nonc12 (centres unmarked) [Dynacirc, isradipine]
transient supersensitivity (transient worsening of the vasospasm) on early administration [2]: did not occur
effect on vessels seen on TCD / ultrasound (vasoconstriction or dilatation) [1]: resulted in vascular dilatation
headache [1]: alleviated or treated the headache
neurological exam and other neurological abnormalities [1]: clinical and neurological exam improvement
effectiveness in treating the vasospasm [1]: extremely effective

O=C(CCCN1CCC(O)(c2ccc(Cl)cc2)CC1)c1ccc(F)cc1 [Haldol, Haloperidol]
response of psychosis (hallucinations and delusions) [3]: did not respond; also recorded: poor response

NNc1nncc2ccccc12 [Hydralazine]
blood pressure changes [2]: tends to cause significant blood pressure changes
transient supersensitivity (transient worsening of the vasospasm) on early administration [2]: did not occur

COc1cc2nc(N3CCN(C(=O)C4CCCO4)CC3)nc(N)c2cc1OC (centres unmarked) [Hytrin, Terazosin]
effectiveness in treating the vasospasm [1]: less successful results; also recorded: has not been found to be effective

CNS(=O)(=O)Cc1ccc2[nH]cc(CCN(C)C)c2c1 [Imitrex, sumatriptan succinate]
effect on vessels seen on TCD / ultrasound (vasoconstriction or dilatation) [1]: caused vasoconstriction
headache [1]: improved their headache
neurological exam and other neurological abnormalities [1]: worsened the patient's neurological exam and mentation

CC(C)NCC(O)COc1cccc2ccccc12 (centres unmarked) [Inderal, Propranolol]
EEG and flow abnormalities on Transcranial Doppler [3]: without change in their EEG and continued flow abnormalities
smoothing out the sympathetic nervous system excitability and variability ([1]; patients being tapered off vasodilators): most effective; also recorded: extremely effective
effectiveness in treating the vasospasm [1]: None of these have been significantly effective at vasodilation

COCCc1ccc(OCC(O)CNC(C)C)cc1 (centres unmarked) [Lopressor, Metoprolol Tartrate]
effectiveness in treating the vasospasm [1]: None of these have been significantly effective at vasodilation

CCOC(=O)[C@H](CCc1ccccc1)N[C@H]1CCc2ccccc2N(CC(=O)O)C1=O [Lotensin, Benazepril]
effectiveness in treating the vasospasm [1]: close second tier medications

CSc1ccc2c(c1)N(CCC1CCCCN1C)c1ccccc1S2 (centres unmarked) [Mellaril, Thioridazine]
effectiveness in treating the vasospasm [1]: has not been effective; also recorded: no significant effects

CN1CCN(CC/C=C2/c3ccccc3Sc3ccc(S(=O)(=O)N(C)C)cc32)CC1 [Navane, Thiothixene]
response of psychosis (hallucinations and delusions) [3]: good response
improvement in the Transcranial Doppler Artery Ultrasound ([1]; patients with TCD mean flow velocities greater than 1.3, within a half hour of 2 mg in 4 ounces of water orally, generally expected): 50%
blood pressure changes ([1]; patients with vasospasm): without causing peripheral blood pressure changes
effectiveness in treating the vasospasm [1]: extremely effective central vasodilator
effectiveness in treating the vasospasm ([1]; listed as Navanne): most effective

CC(CCc1ccccc1)NCC(O)c1ccc(O)c(C(N)=O)c1 (centres unmarked) [Normodyne, Labetolol]
effectiveness in treating the vasospasm [1]: None of these have been significantly effective at vasodilation

NCCCC[C@H](N[C@@H](CCc1ccccc1)C(=O)O)C(=O)N1CCC[C@H]1C(=O)O [Prinivil, Lisinopril]
effectiveness in treating the vasospasm [1]: close second tier medications

CNCCC(Oc1ccc(C(F)(F)F)cc1)c1ccccc1 (centres unmarked) [Prozac]
effectiveness in treating the vasospasm [1]: helpful

COC(=O)[C@H]1[C@H]2C[C@@H]3c4[nH]c5cc(OC)ccc5c4CCN3C[C@H]2C[C@@H](OC(=O)c2cc(OC)c(OC)c(OC)c2)[C@@H]1OC [Reserpine]
effectiveness in treating the vasospasm [1]: very effective; also recorded: extremely effective

Cc1nc2n(c(=O)c1CCN1CCC(c3noc4cc(F)ccc34)CC1)CCCC2 [Respiradol, Respiradone]
tolerability [2]: less well-tolerated in comparison with Thorazine and Navane
patient's symptoms ([1]; antipsychotic agents in patients with vasospasm): generally improved the patient's symptoms
effect on vessels seen on TCD / ultrasound (vasoconstriction or dilatation) [1]: no significant improvement on ultrasound

O=C(O)C(O)C(O)C(=O)O.Oc1ccc2c(c1)[C@@]13CCCC[C@@]1(O)[C@@H](C2)N(CC1CCC1)CC3 [Stadol, butorphanol tartrate]
effect on vessels seen on TCD / ultrasound (vasoconstriction or dilatation) [1]: caused vasoconstriction
headache [1]: improved their headache
neurological exam and other neurological abnormalities [1]: worsened the patient's neurological exam and mentation

NC(=O)N1c2ccccc2C=Cc2ccccc21 [Tegretol, Carbamazepine]
EEG abnormalities and neurocognitive or neurological complaints [1]: improved in some patients
change of the vasospasm [1]: none of the medications in therapeutic doses have changed the vasospasm

CC(C)NCC(O)COc1ccc(CC(N)=O)cc1 (centres unmarked) [Tenormin, Atenolol]
effectiveness in treating the vasospasm [1]: None of these have been significantly effective at vasodilation

CN(C)CCCN1c2ccccc2Sc2ccc(Cl)cc21 [Thorazine, Chlorpromazine]
effectiveness in treating the vasospasm [1]: moderately effected; also recorded: moderately effective

O=C(c1ccccc1)c1ccc2n1CCC2C(=O)O (centres unmarked) [Toradol, ketorolac tromethamine]
effect on Transcranial Doppler ultrasound ([1]; 90 to 120 mg IM doses): causes acute vasodilation on ultrasound in most patients
reversal of reactive vasoconstriction (Nitric Oxide sensitivity reaction) after first nitrate dose ([1]; IM): can be immediately reversed
effectiveness ([1]; IM, doses lower than 90-120 mg): not so effective
effect on Transcranial Doppler ultrasound [1, 4]: generally do not show significant changes
patient-reported symptoms [1, 4]: symptomatic improvement
improvement on Transcranial Doppler Artery Ultrasound ([1]; IV, 30 to 60 mg doses): does not cause any improvement
effect on vessels seen on TCD / ultrasound (vasoconstriction or dilatation) [1]: resulted in vascular dilatation
headache [1]: alleviated or treated the headache
neurological exam and other neurological abnormalities [1]: clinical and neurological exam improvement
vasodilation ([1]; intramuscularly (I.M.) or oral form after oral or I.M. loading): gives the expected vasodilation

NCCCC[C@H](N[C@@H](CCc1ccccc1)C(=O)O)C(=O)N1CCC[C@H]1C(=O)O [Zestril, Lisinopril]
effectiveness in treating the vasospasm [1]: extremely effective
